In US12221417B2, “Salt of omecamtiv mecarbil and process for preparing salt” (Cytokinetics, Inc., priority 2013, dated 2025):
Structures can show the parent of a compound that is named as a salt.

What was measured:
[1] = Dynamic vapor sorption (moisture balance); format: physicochemical
Experimental: Moisture balance data was collected using a VTI SGA 100 symmetrical vapor sorption analyzer. Relative humidity was varied in increments of 5%, between 5% and 95% relative humidity during the adsorption run, and from 95% to 5% relative humidity during the desorption run. Equilibrium criteria was set at 0.01% weight change in 1 minute with a max equilibrium time of 180 minutes. Approximately 1-15 mg of sample was used.

physchem = details: pH 3.5, water, thermodynamic from solid
[2] = pH 3.5
[3] = Water solubility (24 hour slurry experiment); details: pH 3.8, water, thermodynamic from solid

SMILES | weight change, dynamic vapor sorption ([1]; above 15% relative humidity, upon reaching 95% relative humidity) | weight loss, dynamic vapor sorption ([1]; between about 30% and about 5% RH) | total weight gain, dynamic vapor sorption ([1]; between about 40% and about 95% relative humidity) | hygroscopicity ([1]; dynamic vapor sorption) | phase change after the vapor sorption experiment ([1]; examined by XRPD) | solubility at 24 h (physchem) | phase change during the slurry experiment [2] | solubility [3]
COC(=O)N1CCN(Cc2cccc(NC(=O)Nc3ccc(C)nc3)c2F)CC1 [Form A, omecamtiv mecarbil dihydrochloride hydrate] | ~1.0% | about 2.7 wt % | about 0.55 wt. % | non-hygroscopic | No phase change | > 40 mg/mL | no phase change | –
COC(=O)N1CCN(Cc2cccc(NC(=O)Nc3ccc(C)nc3)c2F)CC1 [dihydrochloride salt, omecamtiv mecarbil dihydrochloride hydrate] | – | – | – | – | – | – | – | > 40 mg/mL
